The test system of data set [1] is mitochondrial ECT complex1. Description: Oxygen consumption in permeabilized tumoral cells (RL, SUDHL4, GRANTA). The class given is cell-based, human. The procedure:
Human Cell lines: RL cells (from ATCC, CRL-2261) and SU-DHL-4 cells (from ATCC, CRL-2957) were grown in flasks in RPMI 1640—Glutamax medium supplemented with 10% fetal bovine serum and 1% penicillin-streptomycin. GRANTA cells were grown in flasks in DMEM-Glutamax medium supplemented with 10% fetal bovine serum and 1% penicillin-streptomycin. Cells were maintained at a constant temperature of 37° C. in a humidified atmosphere containing 5% CO2/95% air.
(§1) Oxygen consumption was measured in a thermostatically controlled oxigraph vessel equipped with a Clarck oxygen electrode at 37° C. (Strathkelvin MS200A system).
(§2) Experiment was started by the addition of 100 μg/ml digitonine and either 5 mM Glutamate plus 2.5 mM Malate or 5 mM Succinate plus 1 μM rotenone, followed by the addition of 500 μM ADP (state 3) then 2 μg/ml Oligomycin (state 4).
Cell lines: RL, SU-DHL-4 or GRANTA cells were centrifuged and counted. A cell suspension (100 million of trypan blue negative cells per ml) was prepared in respiration buffer. 10 million cells were added in the oxigraph chamber containing respiration buffer. The final volume was 1 ml. compound 1 (0.5 to 20 μM) was added to permeabilized cells after the addition of ADP or oligomycin.
(§3) All measures were realized 2 min after drugs addition.

In data set [2] the test system is MEF_LKB-/- and MEF_LKB1+/+ cells. Description: WST-1 cell viability test, MEF cells with or without the LKB1 gene. The class given is cell-based, mouse. To be noted: MEF_LKB-/- versus MEF_LKB1+/+, 24 hours. The procedure: (§4) Drugs (compound 1 and Metformin) were initially diluted in DMSO (=vehicle dimethylsulfoxide). Appropriate dilutions of these stocks were performed in DMSO and finally in culture medium; 15 μl of each dilution was distributed in 4 wells (replicates) according to the plate schedule to obtain final drug concentrations (0.1 μM to 1 mM for metformin and 1 μM to 200 μM for compound 1) after cells were added. Control wells with vehicle at the appropriate dilution only were included. Lymphoma cells in exponential phase of growth were counted and assessed for more than 95% viability by trypan blue coloration. […] Adherent cells (MEFs cells and INS-1 cells were seeded the day before to obtain 80% confluence the day of experiment. Culture medium was renewed with 35 μL fresh medium and 15 μl of appropriated drug dilution was then added. These plates were incubated 24 hours at 37° C./5% CO2. Then addition of 5 μl of WST-1 cell proliferation reagent (Roche, #11644807001) was performed, before incubation 2-4 hours at 37° C. and lecture of the absorbance following the manufacturer instructions. WST-1 assays are non-radioactive, rapid and more sensitive than MTT, XTT, or MTS-based assays. The WST-1 assay is based on the cleavage of the tetrazolium salt WST-1 to formazan by cellular mitochondrial dehydrogenases. […] Cell viability was assessed comparing wells containing drugs to those with vehicle only. […]

For data set [3], the system named is Diffuse Large B Cell Lymphoma (SUDHL-4 model) xenograft. Description: CDX xenograft tumor volume, SUDHL-4 model. The class given is in vivo, female SCID mice. The settings on record: SUDHL-4 xenograft, 50 mg/kg intraperitoneal five times a week, versus DMSO control. From the text: (§5) CDX (cell derived xenografts) models of human NHL were used: Follicular Lymphoma (RL model), Diffuse Large B Cell Lymphoma (SUDHL-4 model). Cells were subcutaneously implanted; since the tumor growth was not homogeneous, it was decided to implant surgically 2×2 mm pieces from these initial tumours. Animals were female SCID mice.
(§6) Mice were randomized when the tumors reach a mean volume of 100 mm^3 for the 2 groups (control and compound 1). […] The endpoints are defined by animal ethics as a tumor diameter of >18 mm, significant weight loss or alteration of animal well-being. In order to assess the effectiveness of the compound 1 on tumorigenesis, tumor volume was measured three times a week. The sizes of the primary tumors were measured using calipers and the tumor volume (TV) was extrapolated to a sphere using the formula TV=4/3 π×r3, by calculating the mean radius from the two measurements. The median and standard deviation were also calculated for each group. Median is preferred to mean in order to exclude the extreme values.
(§7) COMPOUND 1 was administered by intraperitoneal injection five times a week, at dose 50 mg/kg. Control DMSO was administered also by intraperitoneal injection five times a week. […]
(§8) Unless specified, the non-parametric Mann-Whitney test was performed on the tumor volume values (mm^3) measured on the day of the first euthanasia.

The test system of data set [4] is Human B lymphoma and T lymphoma cell lines. Description: WST-1 cell viability test, panel of human B and T lymphoma cell lines. The data set is classed as cell-based. From the text: (§9) RL cells (from ATCC, CRL-2261), SUDHL-4 cells (from ATCC, CRL-2957), GRANTA cells, BJAB Burkitt lymphoma cells, SUDHL4 DLBCL lymphoma cells, REC-1 Mantle lymphoma cells, RL follicular lymphoma cells, MTA NK/T lymphoma cells, HUT-78 Sesary T lymphoma cells, Karpas-384 gamma/delta PTCL lymphoma cells and SR-786 ALCL/Alk+ lymphoma Wild type/rescue MEF_LKB1+/+(mouse embryonic fibroblasts) cells were taken as a control; and mutated MEF_LKB−/− cells in which LKB1 gene was invalidated (Bardeesy et al., 2002). All cells were grown in flasks in RPMI 1640 Glutamax medium 11 mM Glucose supplemented with 10% fetal bovine serum and 1% penicillin-streptomycin medium supplemented with 10% fetal bovine serum and 1% penicillin-streptomycin. Cells were maintained at a constant temperature of 37° C. in a humidified atmosphere containing 5% CO2/95% air.
(§10) Drugs (compound 1 and Metformin) were initially diluted in DMSO (=vehicle dimethylsulfoxide). […] Lymphoma cells in exponential phase of growth were counted and assessed for more than 95% viability by trypan blue coloration. […] The formazan dye produced by viable cells can be quantified by measuring the absorbance at 440 nm. Cell viability was assessed comparing wells containing drugs to those with vehicle only. […]
On the technique in general: Formazan colour is commonly taken as a measure of viable cells.

The subject of data set [5] is Follicular Lymphoma (RL model) xenograft. The data set can be described thus: CDX xenograft tumor volume, RL model. The class given is in vivo, female SCID mice. The settings on record: 50 mg/kg intraperitoneal five times a week, versus DMSO control.
Source text: as §5, §6, §7, §8

Data set [6] has as its system Karpas-384 gamma/delta PTCL lymphoma cells. Description: WST-1 cell viability test, Karpas-384 lymphoma cells. The class given is cell-based. The settings on record: Homo sapiens, 24 hours incubation.
Source text: as §9, §10

For the next data set, the system named is INS-1 cells. The data set can be described thus: WST-1 cell viability test, pancreatic neuroendocrine tumor cell line INS-1. The class given is cell-based. The protocol:
as §4

The test system of data set [7] is mitochondrial ECT complex1. Description: Oxygen consumption in permeabilized fresh hepatocytes. The class given is cell-based. To be noted: permeabilized rat liver hepatocytes, state 3, 2 min after addition. The protocol:
Rat liver hepatocytes were isolated from overnight-starved animals by enzymatic digestion with collagenase according to the method of Berry and Friend modified by Groen.
Primary hepatocytes were directly used after isolation (for metabolic analyses). Cells were maintained at a constant temperature of 37° C. in a humidified atmosphere containing 5% CO2/95% air. The medium was removed after 4 h (time necessary for cell attachment) and replaced by fresh medium.
as §1, §2
Primary hepatocytes: 5.105 fresh hepatocytes were added in the oxigraph chamber containing respiration buffer (KET buffer: KCl 125 mM, EGTA 1 mM, Tris 20 mM) supplemented with 0.1% BSA, 5 mM inorganic phosphate (Pi). The final volume was 1 ml. Oxygen consumption rate was measured before and after the addition of compound 1 (1, 20, 50 or 100 μM) either in resting (state 2) or phosphorylating (state 3) condition.
as §3

Data set [8] has as its system RL follicular lymphoma cells. The data set can be described thus: WST-1 cell viability test, RL follicular lymphoma cells. The class given is cell-based. To be noted: Homo sapiens, 24 hours incubation.
Source text: as §9, §10

Data set [9] concerns Karpas-422 DLBCL lymphoma. The data set can be described thus: Apoptosis by Annexin V/PI flow cytometry, Karpas-422. The data set is classed as cell-based, human. To be noted: Karpas-422, 10 μM, 48 hours. The protocol:
(§11) All the cells were routinely maintained in RPMI 1640 culture medium 11 mM glucose supplemented with 10% FCS. The day of experiment, cells (80 to 100.10^3/well) in exponential phase of growth were seeded in 96 wells plates, in 100 μl of culture medium final volume, in absence (not treated: NT) or presence of indicated compounds concentrations. Stocks of compounds were 10 mM in DMSO, and final DMSO concentration in assay was 0.1%. The control not treated (NT) assays contains 0.1% DMSO. After 48h of incubation at 37° C., cells were immediately analyzed by flow cytometry. Apoptosis was detected using Annexin V/PI staining protocol, according to manufacturer indications.
(§12) Compounds 2 to 4 (named respectively C2 to C4 in the figures) were tested and compared with IACS-010759 (IACS), an OXPHOS inhibitor in clinical phase 1 trial which is assessed in parallel (Molina et al., 2018).
For orientation: Flow cytometry measures light scatter and fluorescence of single cells or particles in a stream.

The test system of data set [10] is panel of hematological cell lines. Description: Live cell number by flow cytometry, panel of hematological cell lines. The class given is cell-based, human. The settings on record: 10 μM, 48 hours. The procedure: as §11, §12

As to `N=C(Nc1ccccc1)SCCCCCCSC(=N)Nc1ccccc1` [compound 1], the mitochondrial oxygen consumption result in [1] (permeabilized RL, SUDHL4 and GRANTA cells, state 3, 2 min after addition) was “inhibits mitochondrial oxygen consumption in all cells tested”; in [7] it was “inhibits mitochondrial oxygen consumption in all cells tested”. Further, the “dose inhibiting oxygen consumption, tumoral cells versus fresh hepatocytes” value in data set [1] (permeabilized tumoral cells (RL, SUDHL4, GRANTA) compared with permeabilized fresh hepatocytes) is “about 25 times smaller”. In addition, the “toxicity on cells with or without LKB1 (viability)” value in data set [2] is given as “more toxic for the cells that do not express the LKB1 protein”. Moreover, the “tumor growth (tumor volume)” value in data set [3] and in [5] was “reduces tumor growth” throughout. Further, the “IC50 compared with IC50 of metformin” value in data set [4] (all lymphomas, 24 hours incubation, WST-1) is “far below IC50 of metformin”; in the data set on INS-1 cells (24 hours incubation) it was “far below IC50 of metformin”. Further, in [4] (human B and T lymphoma, 24 hours, 1 μM to 200 μM), the “sensitivity of lymphoma cell lines (viability)” value is reported as “sensible to compound 1”. Moreover, the half-inhibitory concentration (IC50) (as a rule, the concentration that inhibits the measured activity by half) in data set [6] is under 10 µM; with INS-1 cells (Rattus norvegicus, INS1, 24 hours incubation), under 10 µM; in [8] it was under 10 µM.

Consider `N=C(Nc1ccc2ccccc2c1)SCCCCCCSC(=N)Nc1ccc2ccccc2c1` [compound 4], for which the “apoptosis (apoptotic cells/cell decrease)” value in data set [9] is listed as “can induce apoptosis”. For the same molecule, the “number of living cells” value in data set [10] is listed as “induces a differential decrease in the number of living cells”.

For the origin of these results see patent US12371402B2, “Mitochondrial activity inhibitors targeting tumoral metabolism” (CENTRE LEON BERARD, priority 2018, dated 2025).
